Assay results: patent US4405627A, “Diphenylpropylamino-pyridine compounds useful as medicines” (Italiana Schoum S.p.A., priority 1979, dated 1983)
Structures can show the parent of a compound that is named as a salt.

Tests used:
rabbit ileum [1] = test: Spontaneous motility in vitro of rabbit ileum; design: species or system rabbit (New Zealand male); settings: Oryctolagus cuniculus; 50% reduction of amplitude of the basal contraction; Tyrode, 37° C.; read-out: CI50 (the source's name)
Method: The spontaneous motility of the preparations was measured by a isotonic transducer connected with a microdynamometer. Each preparation was previously left dipped for about one hour in the solution up to reach the osmotic equilibrium.
After this time the single compounds were poured in the bath in gradual doses up to notice the quite total disappearance of spontaneous activity in the organ. For sake of comparison parallel tests with papaverine were carried out.

guinea pig ileum [2] = test: BaCl2-induced contraction on guinea pig ileum in vitro; design: species or system guinea pig (Whitish female); settings: for IC50: Cavia porcellus, BaCl2 50 mcg/ml, Tyrode, 37° C., 3 minutes before spasmogen, read-out: CI50 (the source's name); for BaCl2-induced contraction on guinea pig ileum: result in words
Method: (§1) On the guinea pig ileum, which has a minimum intrinsic motility but a remarkable sensibility to agents causing a contracture or a relaxation of the intestinal smooth muscular system, it was possible to further evaluate the spasmolytic activity of the examined substances. As spasmogenic agents acetylcholine and BaCl2 were used which were respectively added to the bath at final concentrations of 0.1 mcg/ml and 50 mcg/ml.
(§2) Ten preparations of guinea pig ileum for each compound were prepared, yet maintaining the same dose range which was used on rabbit ileum.
(§3) The contractions were measured by means of an isotonic transducer connected with a microdynamometer. Each preparation was left dipped for about 30 minutes up to reach the equilibrium.
(§4) After this time, the single doses of each substance to be examined were introduced three minutes before the spasmogenic substance which was contacted with the preparation for 1 minute. Before the subsequent dose of drug was introduced, the tested organ was allowed to recover the basal conditions and this was ascertained by using the only spasmogenic substance. The process was repeated for all the other concentrations. Afterwards the comparison with the reference spasmolytic substance having a known activity, namely papaverine, was carried out yet working in the same conditions and according to the same procedure.

guinea pig ileum [3] = test: Acetylcholine-induced contraction on guinea pig ileum in vitro; design: species or system guinea pig (Whitish female); settings: for IC50: Cavia porcellus, acetylcholine 0.1 mcg/ml, Tyrode, 37° C., 3 minutes before spasmogen, read-out: CI50 (the source's name); for acetylcholine-induced contraction on guinea pig ileum: result in words
Method: as §1, §2, §3, §4

rabbit ileum [4] = test: BaCl2-induced contraction on isolated rabbit ileum; settings: Oryctolagus cuniculus; 50% reduction of the BaCl2-induced contraction; BaCl2 50 mcg/ml; read-out: CI50 (the source's name)
Description: The activity of same compounds in antagonizing the spasm as caused by BaCl2 introduced in the bath at a concentration of 50 mcg/ml one minute before each test was studied. Also for this preparation a comparison with papaverine was at last carried out.

small intestine = test: Effect on the intestinal progress of opaque meal in rat; type: in vivo, rat (Male Wistar); settings: for Progress %: 40 minutes after opaque meal, mean of ten ± standard error, controls 81.76 ± 2.33
Method: Male Wistar rats weighing 150-180 g were employed subdivided in groups of ten subjects, which were maintained fasting for 18 hours before the test.
Two administration ways were considered: oral and intraperitoneal.
In the first set of tests to every group of animals each compound was orally administered in the form of an aqueous solution or suspension in gum-arabic (10% in water) 40 minutes before an opaque meal consisting of a suspension of 5% vegetable charcoal in gum-arabic (20% in water).
The animals were killed by cranial injury 40 minutes after the oral administration of the opaque meal and the small intestine was drawn. To the control group an equal volume of saline was administered in the same administration way. The second set of tests was carried out by administering intraperitoneally the compounds 30 minutes before the opaque meal. The animals were killed 40 minutes after the swallowing of the alimentary bolus and the small intestine was drawn; to the control group an equal volume of saline was injected. The total length of small intestine and the progress of opaque meal were measured in each killed animal.

[5] = Acute toxicity (DL50) in mouse; type: in vivo; settings: mouse, in vivo
Method: (§5) The determination of the lethal dose to 50% of the animals which were treated with the examined substances was obtained by using male Swiss mice averaging 22 g and by considering two administration ways: oral and intraperitoneal.
(§6) Groups of six animals of each dose were prepared which were kept under observation for 7 days and fasting since the evening before the experience.
(§7) During the observation period possible and clear changes in activity and behaviour were controlled by using the Irwin test: a behavioural outline of the treated animals was obtained with respect to other subjects which received reference drugs.
(§8) The calculation of acute toxicity was carried out by using the Litchfield and Wilcoxon procedure (J. Pharmac. Exp. Ther. 96, 99, 1949).
(§9) The acute toxicity values in mg/kg are given in table 9 in the form of average values with the relevant fiducial limits in comparison with papaverine.

[6] = tested on: effects caused by Tremorin; test: Central and peripheral anticholinergic activity in mouse after administration of Tremorin; type: in vivo, mouse (Swiss male); settings: for Tremors / Miosis / Ptyalism: Tremorin 25 mg/kg i.p.; for Tremors: central activity; for Miosis / Ptyalism: peripheral activity; for antagonism of the effects of Tremorin / anticholinergic side effects: result in words, hydrochloride; on Miosis: key: +: Presence of the effect (ptyalism, miosis, tremors); -: Lack of the effect (ptyalism, miosis, tremors); on Ptyalism: key: +: Presence of the effect (ptyalism, miosis, tremors); -: Lack of the effect (ptyalism, miosis, tremors); on Tremors: key: +: Presence of the effect (ptyalism, miosis, tremors); -: Lack of the effect (ptyalism, miosis, tremors)
Method: (§10) In order to evaluate the possible undesirable collateral systemic effects, tests of central and peripheral anticholinergic activity were carried out by using two animal species, mouse and rat.
In the first series of tests Swiss male mice averaging 25 g were used which were subdivided in three groups of 8 animals. […] The third, control group was given an equal volume of saline.
In watching the effects caused by Tremorin during the development of its action, beside the time for the appearance of tremors as an index of the central activity, further parameters such as ptyalism and miosis were contemplated as indexes of peripheral activity.

[7] = tested on: acetylcholine-induced chromodacryorrhea; test: Anticholinergic activity on chromodacryorrhea from acetylcholine; type: in vivo, rat (male Wistar); settings: for Chromodacryorrhea: acetylcholine 160 mcg s.c.; for effect on acetylcholine-induced chromodacryorrhea: 50 mg/kg, result in words
Method: as §10
Another series of experiments was carried out on male Wistar rats averaging 150 g in order to point out the anticholinergic activity at the glandular level.
A first control group consisting of six animals was subcutaneously injected with 160 mcg of acetylcholine.

[8] = tested on: carbachol-stimulated intestinal motility; test: Effect on intestinal progress in rats after excitation with carbachol; type: in vivo, rat; settings: 40 mg/kg i.p.; carbachol 30 mcg/kg i.p.; mean of ten ± standard errors; non-stimulated controls 55.7 ± 2.23, stimulated controls 77.95 ± 1.72
Method: Subsequently a further series of tests were carried out in order to evaluate the capability of some examined compounds in hindering the stimulating action on intestinal motility of a dose of carbachol at the concentration of 30 mcg/kg when intraperitoneally administered. Carbachol or carbamylcholine chloride is a known substance endowed with parasympathomimetic action.
The control group was given an equal volume of saline.
The survey of the data as given in tables 6 was carried out as previously described by considering the percent intestinal progress of opaque meal with respect to the total length of small intestine.

mouse = test: Acute toxicity (DL50) in mouse; type: in vivo; settings: result in words; orally and intraperitoneally
Method: as §5, §6, §7, §8, §9

Solubility = type: physicochemical; settings: saline; read-out: maximum dose consistent with the total solubility in saline
[9] = po, os, average values with fiducial limits, 7 days observation
[10] = ip, average values with fiducial limits, 7 days observation

Row | Compound | IC50 (rabbit ileum [1]) [µM] | IC50 (guinea pig ileum [3]) [µM] | IC50 (guinea pig ileum [2]) [µM] | IC50 (rabbit ileum [4]) [µM] | BaCl2-induced contraction on guinea pig ileum (guinea pig ileum [2]) | acetylcholine-induced contraction on guinea pig ileum (guinea pig ileum [3]) | LD50 at 168 h [5, 9] [mg/kg] | further results
1 | C[n+]1ccccc1NCCC(c1ccccc1)c1ccccc1 [2-(3',3'-diphenylpropyl-1'-amino)-1-methylpyridinium iodide] | 26 | 4.6 | 4.3 | 10 | more active than papaverine | also effective on the acetylcholine-induced contraction | 350 | Progress % (small intestine; 100 mg/kg os): 73.63 ± 4.33%
2 | CN1[C@@H]2CC[C@H]1C[C@@H](OC(=O)C(CO)c1ccccc1)C2 (stereo partly shown) [Atropine sulfate, reference compound] |  |  |  |  |  |  |  | Tremors ([6]; 60 mg/kg i.p.): -; Miosis ([6]; 60 mg/kg i.p.): -; Ptyalism ([6]; 60 mg/kg i.p.): -; Chromodacryorrhea ([7]; 1 mg/kg i.p.): -
3 | c1ccc(C(CCNc2ccccn2)c2ccccc2)cc1 [N-(2'-pyridyl)-3,3-diphenylpropylamine hydrochloride] | 13 | 11 | 5.6 | 14 | more active than papaverine | also effective on the acetylcholine-induced contraction |  | Progress % (small intestine; 20 mg/kg i.p.): 62.10 ± 2.54%; Progress % (small intestine; 50 mg/kg os): 67.65 ± 2.54%; reducing the progress of an opaque meal (small intestine; oral and intraperitoneal, result in words): the most active compound in reducing the progress of an opaque meal in both of the considered administration ways; Progress % [8]: 42.25 ± 3.34%; Tremors ([6]; 50 mg/kg i.p.): +; Miosis ([6]; 50 mg/kg i.p.): +; Ptyalism ([6]; 50 mg/kg i.p.): +; Tremors ([6]; 100 mg/kg i.p.): +; Miosis ([6]; 100 mg/kg i.p.): +; Ptyalism ([6]; 100 mg/kg i.p.): +; antagonism of the effects of Tremorin / anticholinergic side effects ([6]; listed as N-(2'-pyridyl)-3,3-diphenyl-propylamine hydrochloride): does not antagonize the ffects of Tremorin neither at a central level nor at a peripheral level; antagonism of the effects of Tremorin / anticholinergic side effects ([6]; listed as N-(2'-pyridyl)-3,3-diphenylpropylamine hydrochloride): does not show anticholinergic side effects at a central level also at high doses; Chromodacryorrhea ([7]; 50 mg/kg i.p.): +; effect on acetylcholine-induced chromodacryorrhea [7]: do not modify the acetylcholine-induced chromodacryorrhea; LD50 at 168 h ([5]; ip): 360 mg/kg; LD50 at 168 h ([5]; po): > 1500 mg/kg; acute toxicity (mouse): The less toxic compound; solubility (Solubility): 1000 µg/mL
4 | c1ccc(C(CCNc2cccnc2)c2ccccc2)cc1 [N-(3'-pyridyl)-3,3-diphenylpropylamine hydrochloride] | 12 | 10 | 6.7 | 28 | more active than papaverine | also effective on the acetylcholine-induced contraction | > 800 | Progress % (small intestine; 20 mg/kg i.p.): 75.06 ± 5.94%; Progress % (small intestine; 100 mg/kg os): 79.10 ± 5.3%; Progress % [8]: 49.85 ± 3.34%; Tremors ([6]; 50 mg/kg i.p.): -; Miosis ([6]; 50 mg/kg i.p.): +; Ptyalism ([6]; 50 mg/kg i.p.): +; Tremors ([6]; 100 mg/kg i.p.): -; Miosis ([6]; 100 mg/kg i.p.): -; Ptyalism ([6]; 100 mg/kg i.p.): -; Chromodacryorrhea ([7]; 50 mg/kg i.p.): +; effect on acetylcholine-induced chromodacryorrhea [7]: do not modify the acetylcholine-induced chromodacryorrhea; LD50 at 168 h [5, 10]: 340 mg/kg; solubility (Solubility): 1000 µg/mL
5 | COc1ccc(Cc2nccc3cc(OC)c(OC)cc23)cc1OC [Papaverine hydrochloride, reference compound] | 39 | 8.5 | 9.2 | 56 |  |  | 315 | Progress % (small intestine; 200 mg/kg os): 70.2 ± 2.61%; LD50 at 168 h [5, 10]: 66 mg/kg

Further lines, with some results ahead:

Row | IC50 (rabbit ileum [1]) [µM] | IC50 (guinea pig ileum [3]) [µM] | Compound | IC50 (guinea pig ileum [2]) [µM] | IC50 (rabbit ileum [4]) [µM] | BaCl2-induced contraction on guinea pig ileum (guinea pig ileum [2]) | acetylcholine-induced contraction on guinea pig ileum (guinea pig ileum [3]) | LD50 at 168 h [5, 9] [mg/kg] | further results
6 | 18 | 6.2 | CC[n+]1ccccc1NCCC(c1ccccc1)c1ccccc1 [2-(3',3'-diphenylpropyl-1'-amino)-1-ethylpyridinium iodide] | 3.4 |  |  |  |  | 
7 | 16 | 12 | CC[n+]1cccc(NCCC(c2ccccc2)c2ccccc2)c1 [3-(3',3'-diphenylpropyl-1'-amino)-1-ethylpyridinium iodide] |  | 35 |  |  |  | 
8 | 15 | 17 | C[n+]1cccc(NCCC(c2ccccc2)c2ccccc2)c1 [3-(3',3'-diphenylpropyl-1'-amino)-1-methylpyridinium iodide] |  | 14 |  |  |  | 
9 | 24 | 10 | CC[n+]1ccc(NCCC(c2ccccc2)c2ccccc2)cc1 [4-(3',3'-diphenylpropyl-1'-amino)-1-ethyl-pyridinium iodide] | 8.9 | 22 |  |  |  | 
10 | 18 | 16 | C[n+]1ccc(NCCC(c2ccccc2)c2ccccc2)cc1 [4-(3',3'-diphenylpropyl-1'-amino)-1-methyl-pyridinium iodide] |  | 14 |  |  |  | 
